Reference: PubChem BioAssay (NCI)
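Where inhibition never reached the appropriate level, the endpoint shown equals the highest concentration tested. Otherwise, values were interpolated linearly from a five-concentration, 48-hour dose response in 96-well plates. TGI denotes the concentration required for complete inhibition of growth.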

Experiments:
Test in all cases: NCI tumour cell line growth inhibition, 48 h
[1] = tested on: DU-145 prostate
[2] = tested on: SK-MEL-28 melanoma
[3] = tested on: SK-OV-3 ovarian
[4] = tested on: MOLT-4 leukemia
[5] = tested on: PC-3 prostate
[6] = tested on: HOP-92 NSCLC
[7] = tested on: IGROV1 ovarian
[8] = tested on: OVCAR-5 ovarian
[9] = tested on: MDA-MB-231 breast
[10] = tested on: HS 578T breast
[11] = tested on: CCRF-CEM leukemia
[12] = tested on: UO-31 renal
[13] = tested on: LOX IMVI melanoma
[14] = tested on: OVCAR-3 ovarian
[15] = tested on: M14 melanoma
[16] = tested on: K-562 leukemia
[17] = tested on: BT-549 breast
[18] = tested on: SR leukemia
[19] = tested on: HL-60(TB) leukemia
[20] = tested on: CAKI-1 renal

SMILES | TGI [1] | TGI [2] | TGI [3] | TGI [4] | TGI [5] | TGI [6] | TGI [7] | TGI [8] | TGI [9] | TGI [10] | TGI [11] | TGI [12] | TGI [13] | TGI [14] | TGI [15] | TGI [16] | TGI [17] | TGI [18] | TGI [19] | TGI [20]
CCOC(=O)c1nc2ccccc2nc1Oc1cc(OC)cc(OC)c1 | > 100 µM | > 100 µM | > 100 µM | > 100 µM | > 100 µM | > 100 µM | > 100 µM | > 100 µM | > 100 µM | > 100 µM | > 100 µM | > 100 µM | > 100 µM | > 100 µM | > 100 µM | > 100 µM | > 100 µM | > 100 µM | – | –
COc1ccc(N2C(=O)c3cc([N+](=O)[O-])cnc3S2(=O)=O)cc1 | > 100 µM | > 100 µM | > 100 µM | > 100 µM | > 100 µM | > 100 µM | > 100 µM | > 100 µM | > 100 µM | > 100 µM | > 100 µM | > 100 µM | > 100 µM | > 100 µM | – | > 100 µM | > 100 µM | > 100 µM | > 100 µM | –
CCNC1=C(NC(=O)c2ccc(F)cc2)C(=O)c2ccccc2C1=O | > 100 µM | > 100 µM | > 100 µM | > 100 µM | > 100 µM | > 100 µM | > 100 µM | > 100 µM | > 100 µM | > 100 µM | > 100 µM | – | – | 85.7 µM | 63.5 µM | > 100 µM | > 100 µM | > 100 µM | > 100 µM | –
Cc1nc2ccc(F)cc2c2c1CCS2 | > 100 µM | > 100 µM | – | > 100 µM | > 100 µM | > 100 µM | > 100 µM | – | 86.9 µM | > 100 µM | > 100 µM | > 100 µM | > 100 µM | > 100 µM | – | 94.5 µM | > 100 µM | > 100 µM | 47.6 µM | –
COc1cc2nc(-c3cccs3)nc(Nc3cccc([N+](=O)[O-])c3)c2cc1OC | 30 µM | 58 µM | 41.5 µM | > 100 µM | 37.8 µM | – | 32.2 µM | 41.4 µM | 35.9 µM | 70.5 µM | > 100 µM | 43.9 µM | 45.7 µM | 36.6 µM | 33.5 µM | > 100 µM | 39.7 µM | 34.2 µM | > 100 µM | 36.8 µM
O=C(CCC(=O)c1ccsc1)c1ccsc1 | > 100 µM | > 100 µM | > 100 µM | > 100 µM | > 100 µM | > 100 µM | > 100 µM | > 100 µM | > 100 µM | > 100 µM | – | > 100 µM | > 100 µM | > 100 µM | > 100 µM | – | > 100 µM | > 100 µM | > 100 µM | > 100 µM
CCCc1nnc2sc(COc3ccc(OCc4nn5c(CCC)nnc5s4)c(Cl)c3)nn12 | > 100 µM | > 100 µM | > 100 µM | > 100 µM | > 100 µM | 80.6 µM | > 100 µM | > 100 µM | > 100 µM | > 100 µM | – | 31.8 µM | > 100 µM | > 100 µM | 73 µM | > 100 µM | > 100 µM | 64.1 µM | 40.9 µM | 60 µM
Cc1ccc2c(c1C)C(=O)C1(C2)Cc2ccc3c(c2C1=O)CCC3 (stereo not drawn) | > 100 µM | > 100 µM | > 100 µM | > 100 µM | > 100 µM | > 100 µM | > 100 µM | > 100 µM | > 100 µM | > 100 µM | > 100 µM | > 100 µM | – | > 100 µM | > 100 µM | > 100 µM | > 100 µM | > 100 µM | > 100 µM | > 100 µM
COc1ccc2c(O)c(Oc3ccc(Cl)cc3)c(=O)oc2c1 | > 100 µM | > 100 µM | – | > 100 µM | > 100 µM | > 100 µM | > 100 µM | > 100 µM | > 100 µM | > 100 µM | > 100 µM | > 100 µM | > 100 µM | > 100 µM | > 100 µM | > 100 µM | > 100 µM | > 100 µM | > 100 µM | > 100 µM
N#Cc1cc2c(cc1C#N)SCCSCCCSCCS2 | > 100 µM | > 100 µM | 45.4 µM | > 100 µM | > 82.8 µM | 7.05 µM | 97.8 µM | > 100 µM | 29 µM | 28.8 µM | > 75 µM | > 90.6 µM | 22.7 µM | > 100 µM | > 100 µM | > 100 µM | 31.2 µM | > 70.3 µM | – | > 57.8 µM
COC(=O)c1c(O)c(C#N)c2[nH]c3ccccc3n2c1=O | > 100 µM | – | > 100 µM | > 100 µM | > 100 µM | > 100 µM | > 100 µM | > 100 µM | > 100 µM | > 100 µM | > 100 µM | > 100 µM | – | > 100 µM | > 100 µM | > 100 µM | > 100 µM | > 100 µM | > 100 µM | > 100 µM
Cc1ccc(S(=O)(=O)n2cc(/C=C/C#N)c(-c3cn(S(=O)(=O)c4ccc(C)cc4)cc3-c3cn(S(=O)(=O)c4ccc(C)cc4)cc3/C=C/C#N)c2)cc1 | > 100 µM | – | > 100 µM | – | > 100 µM | > 100 µM | > 100 µM | > 100 µM | > 100 µM | > 100 µM | – | > 100 µM | > 100 µM | > 100 µM | > 100 µM | > 100 µM | > 100 µM | > 100 µM | – | > 100 µM
Cc1ccc(-c2n[nH]c(=O)n2/N=C\c2ccccc2O)cc1 | > 100 µM | > 100 µM | > 100 µM | > 100 µM | > 100 µM | > 100 µM | > 100 µM | > 100 µM | > 100 µM | > 100 µM | > 100 µM | > 100 µM | – | > 100 µM | > 100 µM | > 100 µM | > 100 µM | > 100 µM | > 100 µM | > 100 µM
COc1cccc(OC)c1C1ON=C(c2ccccc2)N1C12CC3CC(CC(C3)C1)C2 (stereo not drawn) | > 100 µM | > 100 µM | > 100 µM | > 100 µM | > 100 µM | 88.4 µM | > 100 µM | > 100 µM | > 100 µM | > 100 µM | – | > 100 µM | > 100 µM | > 100 µM | > 100 µM | > 100 µM | > 100 µM | > 100 µM | 4.63 µM | > 100 µM
CN(C)c1cccc(-c2cc(=S)c3cc4c(cc3[nH]2)OCO4)c1 | > 100 µM | > 100 µM | > 100 µM | > 93 µM | > 100 µM | > 100 µM | > 100 µM | > 100 µM | > 100 µM | > 100 µM | > 100 µM | > 100 µM | > 100 µM | > 100 µM | > 100 µM | > 100 µM | > 100 µM | > 100 µM | – | > 100 µM
C#CCN(Cc1ccc2nc(-c3ccccc3)c(Cl)nc2c1)c1ccc(F)cc1 | > 100 µM | > 100 µM | – | 44.6 µM | > 100 µM | > 100 µM | > 100 µM | > 100 µM | > 100 µM | > 100 µM | > 100 µM | > 100 µM | > 100 µM | > 100 µM | > 100 µM | – | > 100 µM | > 100 µM | 87.2 µM | > 100 µM
CN(Cc1cnc2nc(N)nc(N)c2n1)c1ccc(C(=O)NCCCS(=O)(=O)O)cc1 | > 100 µM | > 100 µM | > 100 µM | > 100 µM | > 100 µM | – | > 100 µM | > 100 µM | > 100 µM | > 100 µM | – | > 100 µM | > 100 µM | > 100 µM | > 100 µM | > 100 µM | > 100 µM | > 100 µM | – | –
CCCN(CCC)C(=S)Sc1nc(C)nc(N2CCN(c3nc(C)nc(SC(=S)N(CCC)CCC)c3[N+](=O)[O-])CC2)c1[N+](=O)[O-] | > 100 µM | 36.9 µM | > 100 µM | 28 µM | 53.4 µM | 22.4 µM | 41 µM | 45.4 µM | 20.3 µM | > 100 µM | 8.55 µM | 37.4 µM | 2.27 µM | – | 60.9 µM | – | 26.9 µM | > 81.9 µM | > 38.3 µM | 34.4 µM
C[N+]1(C)C2CC(OC(=O)C(CO)c3ccccc3)CC1C1OC12 (stereo not drawn) | > 100 µM | > 100 µM | > 100 µM | > 100 µM | > 100 µM | – | > 100 µM | > 100 µM | > 100 µM | > 100 µM | > 100 µM | > 100 µM | > 100 µM | > 100 µM | > 100 µM | > 100 µM | > 100 µM | > 100 µM | > 100 µM | > 100 µM
CC(=O)OCC1OC(n2c3c(c(-c4ccc(C)cc4)c(C#N)c2=S)C(=O)CC(C)(C)C3)C(OC(C)=O)C(OC(C)=O)C1OC(C)=O (stereo not drawn) | > 100 µM | 66.3 µM | – | > 100 µM | 60 µM | > 100 µM | > 100 µM | > 100 µM | 62.1 µM | > 100 µM | > 100 µM | > 100 µM | 26.2 µM | > 100 µM | > 100 µM | 95.3 µM | 38.1 µM | > 100 µM | > 100 µM | > 100 µM
